According to patent US7196105B2, “Treatment of human multiple myeloma by curcumin” (Research Development Foundation, priority 2002, dated 2007):
“Also recorded” adds a separate entry of the source.

Key:
IκB kinase = molecular target: T1, IκB kinase (Homo sapiens, UniProt O14920+O15111); test: IκB kinase assay on IKK immunoprecipitated from curcumin-treated U266 cells; assay type: cell-based; settings: curcumin 50 μM, time course, GST-IκBα substrate
T1 construct: 200 μg cytoplasmic extracts were immunoprecipitated with 1 μg of anti-IKKa and IKKb antibodies each; endogenous in cells; host or cells: U266 human multiple myeloma cells (cytoplasmic extract, immunoprecipitate on protein A/G-Sepharose)
T1 sequence (O15111 whole entry): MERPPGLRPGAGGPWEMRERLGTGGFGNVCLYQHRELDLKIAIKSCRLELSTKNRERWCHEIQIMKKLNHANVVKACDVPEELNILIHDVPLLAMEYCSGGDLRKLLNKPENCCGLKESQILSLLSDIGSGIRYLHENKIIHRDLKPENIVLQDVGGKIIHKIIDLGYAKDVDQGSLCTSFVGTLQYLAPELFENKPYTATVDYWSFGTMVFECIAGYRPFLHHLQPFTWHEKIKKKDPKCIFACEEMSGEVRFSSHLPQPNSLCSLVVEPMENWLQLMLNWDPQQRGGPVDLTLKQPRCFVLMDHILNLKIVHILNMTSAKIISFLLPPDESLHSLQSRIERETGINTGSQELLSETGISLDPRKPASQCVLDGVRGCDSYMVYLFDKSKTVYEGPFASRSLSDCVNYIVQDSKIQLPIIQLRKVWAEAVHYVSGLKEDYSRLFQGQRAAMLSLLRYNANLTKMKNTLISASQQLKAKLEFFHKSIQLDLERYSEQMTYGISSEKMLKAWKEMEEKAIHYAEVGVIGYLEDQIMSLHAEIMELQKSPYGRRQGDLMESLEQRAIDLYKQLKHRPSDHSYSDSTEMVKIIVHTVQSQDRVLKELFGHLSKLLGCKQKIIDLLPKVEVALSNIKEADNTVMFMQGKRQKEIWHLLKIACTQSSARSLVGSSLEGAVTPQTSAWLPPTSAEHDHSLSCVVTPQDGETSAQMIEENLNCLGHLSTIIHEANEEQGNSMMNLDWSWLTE
T1 sequence (O14920 whole entry): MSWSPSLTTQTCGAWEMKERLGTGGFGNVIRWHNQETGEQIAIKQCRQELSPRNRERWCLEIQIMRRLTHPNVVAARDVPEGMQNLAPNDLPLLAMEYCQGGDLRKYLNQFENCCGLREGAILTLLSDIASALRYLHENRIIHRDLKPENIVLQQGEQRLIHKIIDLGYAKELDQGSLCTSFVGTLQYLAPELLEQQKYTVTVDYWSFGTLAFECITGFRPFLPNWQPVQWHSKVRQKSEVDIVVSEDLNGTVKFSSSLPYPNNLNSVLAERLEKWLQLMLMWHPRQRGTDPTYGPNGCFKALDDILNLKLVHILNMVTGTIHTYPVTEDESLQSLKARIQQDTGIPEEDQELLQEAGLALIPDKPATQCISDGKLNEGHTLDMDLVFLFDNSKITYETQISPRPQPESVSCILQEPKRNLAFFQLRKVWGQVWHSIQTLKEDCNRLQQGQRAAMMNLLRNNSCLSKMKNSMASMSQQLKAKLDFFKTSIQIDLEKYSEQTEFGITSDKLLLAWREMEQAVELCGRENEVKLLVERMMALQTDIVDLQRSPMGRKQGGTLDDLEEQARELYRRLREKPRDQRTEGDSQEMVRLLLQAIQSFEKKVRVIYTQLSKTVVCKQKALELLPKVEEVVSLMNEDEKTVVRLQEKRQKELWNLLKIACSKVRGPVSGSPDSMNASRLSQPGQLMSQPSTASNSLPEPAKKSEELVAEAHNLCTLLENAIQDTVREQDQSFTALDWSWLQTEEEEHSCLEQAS
T1 sequence (Q9Y6K9 whole entry partner): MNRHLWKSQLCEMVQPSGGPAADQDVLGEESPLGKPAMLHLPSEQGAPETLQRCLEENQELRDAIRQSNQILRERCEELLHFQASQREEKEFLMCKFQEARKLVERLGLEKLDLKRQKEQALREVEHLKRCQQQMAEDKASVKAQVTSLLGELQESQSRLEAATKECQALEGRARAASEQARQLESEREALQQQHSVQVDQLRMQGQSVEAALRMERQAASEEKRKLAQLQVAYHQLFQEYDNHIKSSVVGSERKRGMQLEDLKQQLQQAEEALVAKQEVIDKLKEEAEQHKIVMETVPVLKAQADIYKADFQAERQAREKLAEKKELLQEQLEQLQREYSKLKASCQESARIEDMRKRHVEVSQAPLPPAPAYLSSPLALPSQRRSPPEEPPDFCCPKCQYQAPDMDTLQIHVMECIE
Procedure: Five million U266 cells/2.5 ml were treated with curcumin (50 μM) for the indicated times and cytoplasmic extracts were prepared. FIG. 3A: Level of phosphorylated IκBα determined by Western blotting. FIG. 3B: Immunoprecipitated IκB kinase and kinase assay of IκB kinase activity (upper panel) or Western blotting for the analysis of total IKKα and IKKβ proteins in cytoplasmic extracts (lower panel). FIG. 3C: IκB kinase was immunoprecipitated and kinase assay was performed in the absence or presence of the indicated concentrations of curcumin (upper panel). Lower panel indicates the amount of GST-IκBα protein stained with Coomassie Blue in each well in the same dried gel.
The IkB kinase assay was performed with a modified method as described earlier (Manna et al., 2000). Briefly, 200 μg cytoplasmic extracts were immunoprecipitated with 1 μg of anti-IKKa and IKKb antibodies each, and the immune complexes so formed were precipitated with 0.01 ml of protein A/G-Sepharose beads for 2 hour. The beads were washed first with lysis buffer and then with kinase assay buffer (50 mM HEPES pH 7.4, 20 mM MgCl2, and 2 mM DTT). The immune complex was then assayed for kinase activity using kinase assay buffer containing […] [g-P^32]ATP, 10 μM unlabeled ATP, and 2 μg/sample glutathione S-transferase-IkBa (1–54). […] Radioactive bands of the dried gel were visualized and quantitated by PhosphorImager.

IKKα and IKKβ = test: Western blot for total IKKα and IKKβ proteins in U266 cytoplasmic extracts; assay type: cell-based, human; settings: U266 cells, curcumin 50 μM
Procedure: FIG. 3A: Level of phosphorylated IκBα determined by Western blotting. FIG. 3B: Immunoprecipitated IκB kinase and kinase assay of IκB kinase activity (upper panel) or Western blotting for the analysis of total IKKα and IKKβ proteins in cytoplasmic extracts (lower panel). FIG. 3C: IκB kinase was immunoprecipitated and kinase assay was performed in the absence or presence of the indicated concentrations of curcumin (upper panel). Lower panel indicates the amount of GST-IκBα protein stained with Coomassie Blue in each well in the same dried gel. To determine the total amount of IKK complex in each sample, […] of cytoplasmic protein was resolved on a 7.5% acrylamide gel and then electrotransferred to a nitrocellulose membrane. The membrane was blocked with 5% nonfat milk protein for 1 h and then incubated with either anti-IKKα or anti-IKKβ antibodies for 1 h. The membrane was then washed and treated with HRP-conjugated secondary anti-mouse IgG antibody and finally detected by chemiluminescence (Amersham Pharmacia Biotech, Arlington Heights, Ill.).

IL-6 = IL-6 ELISA of culture supernatants; assay type: cell-based, human; settings: U266 cells, curcumin (legend b20: 10 mM)
Procedure: Sixty micrograms of cytoplasmic extracts were resolved on 10% SDS-PAGE gel, electrotransferred on a nitrocellulose membrane, and probed for the following: IκBα (FIG. 4A); Bcl-2 (FIG. 4B); Bcl-xL (FIG. 4C) and cyclin D1 (FIG. 4D). The same blots were stripped and reprobed with anti-β-actin antibody to show equal protein loading (lower panel in each figure). FIG. 4E: […] U266, MM.1 or RPMI 8226 cells (1×10^7) were treated with curcumin ([…]) in 5 ml of medium for the indicated times. Supernatants were harvested and concentrated approximately 20×, and IL-6 was quantitated by an IL-6 ELISA kit. Values shown were normalized to 1 ml of un-concentrated supernatants. […] One hundred microliter aliquots were removed, and IL-6 contents were determined by an ELISA kit (Biosource International).

U266 cells [1] = test: Proliferation by thymidine incorporation; assay type: cell-based, human; settings: U266, 24 h, different concentrations
Procedure: FIG. 6A: U266 cells (5000 cells/0.1 ml) were incubated with different concentrations of curcumin for 24 hours, and cell proliferation assay was performed as described. Results are shown as mean (±s.d.) of percent [^3H}-thymidine incorporation of triplicate cultures compared to untreated control. FIG. 6B: U266 cells (5000 cells/0.1 ml) were incubated with different concentrations of curcumin for 24 hours, and cell viability was determined by MTT method. The results are shown as the mean (±s.d.) percent viability from triplicate cultures. The antiproliferative effects of curcumin were also monitored by the thymidine incorporation method. Five thousand cells in […] medium were cultured in triplicate in 96-well plates in the presence or absence of curcumin for 24 h. Six hours before the completion of experiment, the cells were pulsed with […] ^3H-thymidine, and the uptake of ^3H-thymidine was monitored using a Matrix-9600 b-counter (Packard Instruments, Downers Grove, Ill.).

U266 cells [2] = test: Cell viability by MTT method; assay type: cell-based, human; settings: U266, 24 h, different concentrations
Procedure: The results are shown as the mean (±s.d.) percent viability from triplicate cultures.
(§1) Briefly, cells (5000/well) were incubated in triplicate in a 96-well plate in the presence or absence of indicated test samples in a final volume of 0.1 ml for 24 h at 37° C. Thereafter, 0.025 ml of MTT solution (5 mg/ml in PBS) was added to each well. After a 2 h incubation at 37 ° C., 0.1 ml of extraction buffer (20% SDS, 50% dimethylformamide) was added. Incubation was continued for overnight at 37 ° C., and then the OD at 590 nm was measured using a 96-well multiscanner autoreader (Dynatech MR 5000), with extraction buffer as blank. Percent cell viability=(OD of the experiment samples/OD of the control)×100.

U266 cells [3] = test: Cytotoxic effect of vincristine with or without curcumin (MTT); assay type: cell-based, human; settings: U266, curcumin 10 μM alone, 24 h
Procedure: as §1, with “The antiproliferative effects of curcumin against different multiple myeloma cell lines were determined by the MTT dye uptake method as described earlier (Manna et al., 1998). Briefly,” for “Briefly,”

IκB kinase activity of IKK immunoprecipitated from treated cells (IκB kinase): decreased in kinase activity
Structure (SMILES): COc1cc(/C=C/C(=O)CC(=O)/C=C/c2ccc(O)c(OC)c2)ccc1O [curcumin, diferuloylmethane]
protein levels of IκB kinase subunits IKKα and IKKβ (IKKα and IKKβ): no significant change
IL-6 production (IL-6): inhibited the production of IL-6
thymidine incorporation (U266 cells [1]): suppressed thymidine incorporation within 24 h in a dose-dependent manner
cell viability / mitochondrial activity (MTT) (U266 cells [2]): suppressed mitochondrial activity; also recorded: decreased cell survival in a dose-dependent manner
cells killed (U266 cells [3]): approximately 35%
